Assay results as given in patent US20240199642A1, “METHOD FOR OBTAINING RIFAPENTINE WITH A NEW CRYSTALLINE FORM” (INTERQUIM S.A. DE C.V., priority 2021, published 2024).

Experiments:
[1] = hygroscopicity under normal handling and storage conditions; format: physicochemical
[2] = stability under normal storage conditions and normal formulation manipulations; format: physicochemical

- hygroscopicity ([1]; normal handling and storage conditions): non-hydroscopic
- hygroscopicity ([1]; normal storage conditions and normal formulation manipulations): non-hygroscopic
- stability [2]: stable
Structure (SMILES): CO[C@H]1/C=C/O[C@@]2(C)Oc3c(C)c(O)c4c(O)c(c(/C=N/N5CCN(C6CCCC6)CC5)c(O)c4c3C2=O)NC(=O)/C(C)=C\C=C\[C@H](C)[C@H](O)[C@@H](C)[C@@H](O)[C@@H](C)[C@H](OC(C)=O)[C@@H]1C [crystalline form of rifapentine, Rifapentine]
